The subject of test [1] is primary neonatal rat ventricular cardiomyocytes. Put plainly: DNA synthesis, mitosis and cytokinesis in primary neonatal rat ventricular cardiomyocytes. The format is cell-based. To be noted: for induction of cardiomyocyte DNA synthesis: FIG. 2d, 2e; for inhibition of periostin-stimulated DNA synthesis by integrin blockers: cRGD 10 μM, antibodies 10 μg/mL. The text has this: Primary neonatal rat ventricular cardiomyocytes were isolated using the Neomyts kit (Cellutron, Highland Park, N.J.), seeded at a density of 10^5 cells/cm^2 onto gelatin-coated cover slips, stimulated for 3 days, and labeled with BrdU for the terminal 2 days. Primary adult ventricular cardiomyocytes were isolated from male (300 gm) Wistar rats (Charles River Laboratories) and maintained as described (Engel, F. B. et al. p38 MAP kinase inhibition enables proliferation of adult mammalian cardiomyocytes. Genes Dev 19, 1175-87 (2005)). Adult cardiomyocytes were stimulated daily for 9 days and labeled with 30 μM BrdU for the terminal 3 days. Cardiomyocytes were stimulated with periostin (500 ng/mL) and FGF (100 ng/mL). Inhibiting antibodies were added at a concentration of 10 μg/mL, cRGD at 10 μM, U0126 at 10 μM, PD98059 at 1 μM, LY294002 at 10 μM, and Wortmannin at 0.1 μM 30 min prior to stimulation. The vehicle used to dissolve factors or chemicals was added to unstimulated samples, which were then processed together with the test samples.
DNA-synthesis was analyzed by visualization of BrdU uptake and cytokinesis was determined by detection of the cleavage furrow and the midbody with an antibody against aurora B kinase as described (Engel, F. B. et al. p38 MAP kinase inhibition enables proliferation of adult mammalian cardiomyocytes. Genes Dev 19, 1175-87 (2005)). Signals were visualized with secondary antibodies conjugated to Alexa 488, Alexa 546, Alexa 594, and Alexa 647 (Invitrogen). Nuclei were visualized with 4′,6′-diamidino-2-phenylindole (DAPI, Invitrogen). For image acquisition, the value for γ was set at 1 and the lookup table settings were linear.

Test [2] has as its system primary adult rat ventricular cardiomyocytes. The test can be described thus: DNA synthesis (BrdU uptake, immunofluorescence) in primary adult rat ventricular cardiomyocytes. To be noted: for inhibition of periostin-induced DNA synthesis / cell-cycle reentry by kinase inhibitors / inhibition of neuregulin-induced cell-cycle reentry: PD98059 1 mM; for inhibition of periostin-induced DNA synthesis / cell-cycle reentry by kinase inhibitors: U0126 10 mM, LY294002 10 mM, SH-6 10 mM, Akt1/2 inhibitor 1 mM [sic]; for inhibition of neuregulin-induced cell-cycle reentry: U0126 10 mM as printed. On the set-up: inhibition of periostin-stimulated DNA synthesis by integrin antibodies: dose or concentration left out as unconfirmed. It counts as cell-based. An excerpt: Primary neonatal rat ventricular cardiomyocytes were isolated using the Neomyts kit (Cellutron, Highland Park, N.J.), seeded at a density of 10^5 cells/cm^2 onto gelatin-coated cover slips, stimulated for 3 days, and labeled with BrdU for the terminal 2 days. Primary adult ventricular cardiomyocytes were isolated from male (300 gm) Wistar rats (Charles River Laboratories) and maintained as described (Engel, F. B. et al. p38 MAP kinase inhibition enables proliferation of adult mammalian cardiomyocytes. Genes Dev 19, 1175-87 (2005)). Adult cardiomyocytes were stimulated daily for 9 days and labeled with 30 μM BrdU for the terminal 3 days. Cardiomyocytes were stimulated with periostin (500 ng/mL) and FGF (100 ng/mL). […] The vehicle used to dissolve factors or chemicals was added to unstimulated samples, which were then processed together with the test samples. DNA-synthesis was analyzed by visualization of BrdU uptake and cytokinesis was determined by detection of the cleavage furrow and the midbody with an antibody against aurora B kinase as described (Engel, F. B. et al. p38 MAP kinase inhibition enables proliferation of adult mammalian cardiomyocytes. Genes Dev 19, 1175-87 (2005)). Signals were visualized with secondary antibodies conjugated to Alexa 488, Alexa 546, Alexa 594, and Alexa 647 (Invitrogen). […] For image acquisition, the value for γ was set at 1 and the lookup table settings were linear. Primary adult rat ventricular cardiomyocytes were grown on gridded cover slips (Electron Microscopy Services, Ft. Washington, Pa.) and imaged in phase contrast at 10× magnification. Cardiomyocytes were transduced with an adenovirus leading to nuclear expression of histone2B-GFP (Shi, Q. & King, R. W. Nature 437, 1038-42 (2005)) under control of the chicken troponin T promoter ([…]. Am J Physiol Cell Physiol 286, […]-64 (2004)). Nuclei were visualized at 10× magnification with a mercury-arc lamp dimmed to 1.5% with a neutral density filter. […] Images of BrdU-positive cardiomyocytes were matched with the corresponding images from before stimulation. For quantification, differentiated cardiomyocytes were defined as striated rod-shaped structures with length/width ratio>1.5.

Test [3] relates to primary neonatal rat ventricular cardiomyocytes. The test can be described thus: Cardiomyocyte proliferation by cell count (hemocytometer). It counts as cell-based. To be noted: for inhibition of periostin-stimulated proliferation by integrin blockers: cRGD 10 μM, antibodies 10 μg/mL; for inhibition of periostin-stimulated proliferation by ERK and PI3-kinase inhibitors: U0126 10 μM, PD98059 1 μM, LY294002 10 μM, Wortmannin 0.1 μM.
Protocol: To determine cardiomyocyte proliferation, primary neonatal rat ventricular cardiomyocytes were quantified by counting with a hemocytometer after 3 days and 6 days of stimulation. To determine cardiomyocyte survival, primary neonatal rat ventricular cardiomyocytes were pre-treated with 500 ng/mL periostin or buffer for 30 min and then exposed to 0.5 μM doxycycline or 100 ng/mL TNFα for 24 hr and quantified by counting. Corresponding samples were stained with an antibody directed against tropomyosin as a cardiomyocyte marker to control for the percentage of differentiated cardiomyocytes. Apoptotic cardiomyocyte nuclei were determined after 24 hr with the In situ Cell Death Detection Kit (Roche, Indianapolis, Ind.) in combination with staining for troponin I.

For test [4], the system named is Adult male Sprague-Dawley rats. Put plainly: Cardiomyocyte cell cycle activity in vivo after intramyocardial injection. On the set-up: species or system rat; LVFW CM nuclei: unit not given here. As for the experimental part:
Experiments were performed in accordance with institutional guidelines of Massachusetts General Hospital. Injections and analyses were performed in a blinded fashion. Adult male Sprague-Dawley rats (300 gm, Charles River Laboratories) underwent thoracotomy and received intramyocardial injections of 50 μg of recombinant human periostin consisting of the fas1-4 domains, 50 μg of rat fibronectin, or 100 μL of 100 mM sodium acetate as a control (5 rats per group). The survival rate for this procedure was 80%. Injected periostin was confirmed by detection with a polyclonal antibody directed against human periostin (Abcam) and visualized by immunofluorescence microscopy. Intraperitoneal injections of BrdU (70 μmol/kg body weight) with a tissue half life of 2 hr were given every 48 hr, and rats were sacrificed after the third injection. Horizontal cryosections of 14 μm thickness spaced at 1 mm intervals were analyzed by laser scanning immunofluorescence microscopy. BrdU-positive cardiomyocyte nuclei and cytokineses were quantified on 16-20 sections per heart. Fibrosis and cardiomyocyte cross-sectional area were determined on 5 Masson's Trichrome-stained sections at the level of the injection at 40× magnification and quantified using the Metamorph software package (Molecular Devices Corp., Downingtown, Pa.).

[5] abbreviates: U0126 10 μM, PD98059 1 μM, LY294002 10 μM, Wortmannin 0.1 μM.
[6] abbreviates: 1 week after intracardiac injection.

Entries after “also recorded” stand apart in the source; their conditions may differ. Like-named read-outs stand apart in the source and are kept apart here.

Data on eleven molecules can be found in US8936806B2, “Periostin induces proliferation of cardiomyocytes and promotes cardiac regeneration” (Children's Medical Center Corporation, priority 2007, dated 2015).

In the case of “collagen: type 1 rat collagen, extracellular matrix component known to activate integrins”, the “induction of cardiomyocyte DNA synthesis” value in test [1] is given as “did not induce DNA synthesis”.
On to SH-6, for which the “inhibition of periostin-induced DNA synthesis / cell-cycle reentry by kinase inhibitors” value in test [2] (differentiated cardiomyocytes) is given as “reduced”.
Regarding `C[S+]([O-])c1ccc(-c2nc(-c3ccncc3)c(-c3ccc(F)cc3)[nH]2)cc1` (stereo not shown) [SB203580], the “effect on periostin-induced cardiomyocyte DNA synthesis when added” value in test [2] (FGF 100 ng/ml, SB203580 5 mM or 10 mM as printed) is on record as “no additional effect”.
With Cyclic Arg-Gly-Asp [cRGD], the “inhibition of periostin-stimulated DNA synthesis by integrin blockers” value in test [1] is given as “inhibited; also recorded: blocked”. The “inhibition of periostin-stimulated proliferation by integrin blockers” value in test [3] is “blocked”.
`N#CC(=C(/N)Sc1ccccc1N)/C(C#N)=C(\N)Sc1ccccc1N` [U0126]: in test [1], the “inhibition of periostin-stimulated DNA synthesis by ERK and PI3-kinase inhibitors” value is “inhibited only by blocking Akt activation”; the “inhibition of periostin-stimulated cytokinesis by ERK and PI3-kinase inhibitors” value is on record as “inhibited”. Also, the “inhibition of periostin-stimulated proliferation by ERK and PI3-kinase inhibitors” value in test [3] is “inhibited”. Besides, in test [2] (differentiated cardiomyocytes), the “inhibition of neuregulin-induced cell-cycle reentry” value is on record as “inhibited” and the “inhibition of periostin-induced DNA synthesis / cell-cycle reentry by kinase inhibitors” value is listed as “did not reduce; also recorded: did not block”.
With `O.O=C(O)C(F)(F)F.O=c1[nH]c2ccccc2n1C1CCN(Cc2ccc(-c3nc4cc5[nH]cnc5cc4nc3-c3ccccc3)cc2)CC1` [Akt1/2 inhibitor], the “inhibition of periostin-induced DNA synthesis / cell-cycle reentry by kinase inhibitors” value in test [2] (differentiated cardiomyocytes) is given as “reduced”.
On to `COc1cccc(-c2cc(=O)c3ccccc3o2)c1N` [PD98059], for which, in test [1] (setting [5]), the “inhibition of periostin-stimulated DNA synthesis by ERK and PI3-kinase inhibitors” value is given as “inhibited only by blocking Akt activation”; the “inhibition of periostin-stimulated cytokinesis by ERK and PI3-kinase inhibitors” value is “inhibited”. For the same molecule, the “inhibition of periostin-stimulated proliferation by ERK and PI3-kinase inhibitors” value in test [3] is recorded as “inhibited”. In test [2] (differentiated cardiomyocytes), the “inhibition of neuregulin-induced cell-cycle reentry” value is “inhibited” and the “inhibition of periostin-induced DNA synthesis / cell-cycle reentry by kinase inhibitors” value was “did not reduce; also recorded: did not block”.
Regarding “Fibronectin: Rat fibronectin from Biomedical Technologies; extracellular matrix component [reference compound]”, the “induction of cardiomyocyte DNA synthesis” value in test [1] is “did not induce DNA synthesis”. Further, in test [4] (setting [6]), the “LVFW BrdU-positive CM nuclei” value came out at 0.002 ± 0.0004% and the “LVFW CM nuclei” value is on record as 10.7 ± 0.4 10^$$ per heart. The “LVFW BrdU-positive CM nuclei” value in test [4] (1 week after intracardiac injection, 3 BrdU injections) was 273.6 ± 42.8 per heart. In test [4] (1 week after intracardiac injection, 50 μg periostin (fas1-4 domains) or 50 μg rat fibronectin), this molecule gave an LVFW myocardial volume of 224 ± 6 mm^3. Besides, in test [4] (FIG. 4c), the “cardiomyocyte DNA synthesis in vivo” value is listed as “did not increase”. For the same molecule, in test [4] (FIG. 4d), the “cardiomyocyte cytokinesis in vivo” value is “did not increase”.
For the molecule “integrin αV antibody: integrin αV (RMV-7) blocking antibody, BioLegend”, in test [1], the “inhibition of periostin-stimulated DNA synthesis by integrin blockers” value is listed as “inhibited”. Further, in test [3], the “inhibition of periostin-stimulated proliferation by integrin blockers” value was “inhibited”. Besides, in test [2] (differentiated cardiomyocytes), the “inhibition of periostin-stimulated DNA synthesis by integrin antibodies” value is “inhibited”.

B1: boiled periostin: boiled periostin used in control experiments to rule out a non-protein impurity (protein, UniProt Q15063 22-836, looked up)
Periostin: NNHYDKILAHSRIRGRDQGPNVCALQQILGTKKKYFSTCKNWYKKSICGQKTTVLYECCPGYMRMEGMKGCPAVLPIDHVYGTLGIVGATTTQRYSDASKLREEIEGKGSFTYFAPSNEAWDNLDSDIRRGLESNVNVELLNALHSHMINKRMLTKDLKNGMIIPSMYNNLGLFINHYPNGVVTVNCARIIHGNQIATNGVVHVIDRVLTQIGTSIQDFIEAEDDLSSFRAAAITSDILEALGRDGHFTLFAPTNEAFEKLPRGVLERIMGDKVASEALMKYHILNTLQCSESIMGGAVFETLEGNTIEIGCDGDSITVNGIKMVNKKDIVTNNGVIHLIDQVLIPDSAKQVIELAGKQQTTFTDLVAQLGLASALRPDGEYTLLAPVNNAFSDDTLSMDQRLLKLILQNHILKVKVGLNELYNGQILETIGGKQLRVFVYRTAVCIENSCMEKGSKQGRNGAIHIFREIIKPAEKSLHEKLKQDKRFSTFLSLLEAADLKELLTQPGDWTLFVPTNDAFKGMTSEEKEILIRDKNALQNIILYHLTPGVFIGKGFEPGVTNILKTTQGSKIFLKEVNDTLLVNELKSKESDIMTTNGVIHVVDKLLYPADTPVGNDQLLEILNKLIKYIQIKFVRGSTFKEIPVTVYTTKIITKVVEPKIKVIEGSLQPIIKTEGPTLTKVKIEGEPEFRLIKEGETITEVIHGEPIIKKYTKIIDGVPVEITEKETREERIITGPEIKYTRISTGGGETEETLKKLLQEEVTKVTKFIEGGDGHLFEDEEIKRLLQGDTPVRKLQANKKVQGSRRRLREGRSQ
modifications: heat-denatured
notes: boiled periostin used in control experiments to rule out a non-protein impurity
For the molecule B1, the “activation of the cardiomyocyte cell cycle” value in test [1] (control for non-protein impurity) is “did not activate”.

B2: variant consisting of the 4 fas1 domains: periostin derivative consisting of 4 fas1 domains, purified from bacteria, molecular weight of 75 kDa (protein)
chain: NNHYDKILAHSRIRGRDQGPNVCALQQILGTKKKYFSTCKNWYKKSICGQKTTVLYECCPGYMRMEGMKGCPAVLPIDHVYGTLGIVGATTTQRYSDASKLREEIEGKGSFTYFAPSNEAWDNLDSDIRRGLESNVNVELLNALHSHMINKRMLTKDLKNGMIIPSMYNNLGLFINHYPNGVVTVNCARIIHGNQIATNGVVHVIDRVLTQIGTSIQDFIEAEDDLSSFRAAAITSDILEALGRDGHFTLFAPTNEAFEKLPRGVLERFMGDKVASEALMKYHILNTLQCSESIMGGAVFETLEGNTIEIGCDGDSITVNGIKMVNKKDIVTNNGVIHLIDQVLIPDSAKQVIELAGKQQTTFTDLVAQLGLASALRPDGEYTLLAPVNNAFSDDTLSMVQRLLKLILQNHILKVKVGLNELYNGQILETIGGKQLRVFVYRTAVCIENSCMEKGSKQGRNGAIHIFREIIKPAEKSLHEKLKQDKRFSTFLSLLEAADLKELLTQPGDWTLFVPTNDAFKGMTSEEKEILIRDKNALQNIILYHLTPGVFIGKGFEPGVTNILKTTQGSKIFLKEVNDTLLVNELKSKESDIMTTNGVIHVVDKLLYPADTPVGNDQLLEILNKLIKYIQIKFVRGSTFKEIPVTVY
Turning to B2, the “induction of cardiomyocyte DNA synthesis” value in test [1] is listed as “stimulated DNA synthesis as effectively as FGF”.
